Test systems include HOP-62 NSCLC; MDA-N; TK-10 renal; COLO 205 colon; NCI-H460 lung; A549 NSCLC; OVCAR-4 ovarian; HCC-2998 colon; SW-620 colon; NCI-H23 lung; MCF7 breast; SN12C renal.
Common to all, as to assay: NCI anticancer screen, dose series, 48 h

Molecules are shown by their SMILES.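 Growth conditions: 96-well plates. Treatment: test compound, 48 hours, 5 concentrations. Analysis: linear interpolation between bracketing concentrations; unreached endpoints set to highest concentration. Here, GI50 denotes the concentration required for 50% inhibition of growth. The concentration for full growth arrest is given as TGI.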 Bounds are passed on as bounds.

In the case of `COC1=C(N2CC2)C(=O)c2nc3n(c2C1=O)CCC3`, the TGI in the assay with HOP-62 NSCLC stood at 2.34 µM; in the assay on MDA-N, 2.89 µM; in the assay with TK-10 renal it was 7.08 µM; with COLO 205 colon it was 2.13 µM; with NCI-H460 lung, 2.42 µM; with A549 NSCLC, 6.47 µM. Also, the TGI in the assay with OVCAR-4 ovarian was found to be 0.526 µM; in the assay with HCC-2998 colon it was 2.44 µM; in the assay with SW-620 colon, 2.19 µM; in the assay on NCI-H23 lung, 2.34 µM; in the assay on MCF7 breast, 4.08 µM; with SN12C renal, 2.95 µM.

As to `COC(=O)C1=C(\c2ccccc2)c2ccccc2C(=O)N(C2CCCCC2)/C=C\1`, the TGI with HOP-62 NSCLC is 45.3 µM; in the assay with MDA-N, above 100 µM; with TK-10 renal it was above 100 µM; in the assay on COLO 205 colon, 28.8 µM; with NCI-H460 lung it was 65.7 µM; with A549 NSCLC, above 100 µM. Besides, the TGI in the assay with OVCAR-4 ovarian was above 100 µM; with HCC-2998 colon it was 62 µM; in the assay on SW-620 colon, above 100 µM; in the assay with NCI-H23 lung, above 100 µM; in the assay on MCF7 breast it was 77.4 µM; in the assay with SN12C renal, above 100 µM.

Turning to `Cc1ccc(S(=O)(=O)NC2C(=O)c3ccccc3C(=O)C2n2cnc3ccccc32)cc1` (stereo unspecified), the TGI in the assay on HOP-62 NSCLC is above 100 µM; in the assay on MDA-N, 45.5 µM; in the assay with TK-10 renal, 49.6 µM; in the assay on COLO 205 colon, above 100 µM; in the assay with NCI-H460 lung, 84.3 µM; with A549 NSCLC it was above 100 µM. For the same compound, the TGI in the assay with OVCAR-4 ovarian was 26.1 µM; with HCC-2998 colon, 34.7 µM; in the assay with SW-620 colon it was 94.4 µM; with NCI-H23 lung it was 58.6 µM; with MCF7 breast, above 100 µM; with SN12C renal it was above 100 µM.

For `COc1ccc2cc(/C=N\NC(=O)Nc3cccc4ccccc34)ccc2c1`, the TGI is 28.7 µM with HOP-62 NSCLC; above 100 µM in the assay with MDA-N; 56.5 µM with TK-10 renal; above 100 µM with COLO 205 colon; 86.4 µM in the assay with NCI-H460 lung; above 100 µM in the assay with A549 NSCLC. For the same compound, the TGI was 72.1 µM in the assay on OVCAR-4 ovarian; above 100 µM in the assay on HCC-2998 colon; above 100 µM in the assay on SW-620 colon; above 100 µM with NCI-H23 lung; above 100 µM with MCF7 breast; above 100 µM in the assay with SN12C renal.

Turning to `Cc1cccc(C)c1NC(=S)NC=C(C(N)=O)C(N)=O`, the TGI in the assay with HOP-62 NSCLC, in the assay on MDA-N, in the assay with TK-10 renal, in the assay with COLO 205 colon, in the assay on NCI-H460 lung and in the assay on A549 NSCLC was above 100 µM in each case. In addition, the TGI in the assay with OVCAR-4 ovarian, with HCC-2998 colon, in the assay with SW-620 colon, with NCI-H23 lung, in the assay with MCF7 breast and with SN12C renal was above 100 µM throughout.

For `c1ccc(Nc2nnc(Cn3ccc4ccccc43)s2)cc1`, the TGI in the assay on HOP-62 NSCLC, in the assay with MDA-N, in the assay on TK-10 renal, in the assay with COLO 205 colon, in the assay on NCI-H460 lung and in the assay with A549 NSCLC was above 100 µM throughout. The TGI with OVCAR-4 ovarian, in the assay with HCC-2998 colon, with SW-620 colon, in the assay with NCI-H23 lung, in the assay with MCF7 breast and with SN12C renal was above 100 µM each time.

As to `OC(C/C(=N\N1CCCCC1)c1cccs1)(C(F)(F)F)C(F)(F)F`, the TGI in the assay on HOP-62 NSCLC, in the assay on MDA-N, with TK-10 renal, in the assay on COLO 205 colon, in the assay on NCI-H460 lung and in the assay with A549 NSCLC was above 10 µM in each case. Moreover, the TGI with OVCAR-4 ovarian, in the assay with HCC-2998 colon, in the assay on SW-620 colon, with NCI-H23 lung, with MCF7 breast and with SN12C renal was above 10 µM in each case.

As to `O=c1c2cccnc2cc(-c2ccccc2)n1CCO`, the TGI in the assay with HOP-62 NSCLC, in the assay with MDA-N, in the assay with TK-10 renal, in the assay on COLO 205 colon, with NCI-H460 lung and in the assay on A549 NSCLC was above 100 µM throughout. Also, the TGI in the assay with OVCAR-4 ovarian, in the assay with HCC-2998 colon, with SW-620 colon, in the assay on NCI-H23 lung, with MCF7 breast and in the assay on SN12C renal was above 100 µM throughout.

`COc1cc(NP(=O)(Oc2ccccc2)Oc2ccccc2)ccc1Nc1c2ccccc2nc2c1[nH]c1ccccc12`: the TGI in the assay on HOP-62 NSCLC is 2.8 µM; with MDA-N, 15.4 µM; in the assay with TK-10 renal, 12.3 µM; in the assay with COLO 205 colon it was above 43 µM; in the assay on NCI-H460 lung, 29.2 µM; in the assay with A549 NSCLC, 2.22 µM. Moreover, the TGI with OVCAR-4 ovarian came out at 15.3 µM; in the assay on HCC-2998 colon, 23.2 µM; in the assay on SW-620 colon, 12.9 µM; with NCI-H23 lung it was 12.3 µM; with MCF7 breast, 25.7 µM; with SN12C renal it was 2.09 µM.

Regarding `CCCCCCCCCCCCC(O)C1CCC(C(O)CCCCCCC(O)CCCCCCCC2=CC(C)OC2=O)O1` (stereo unspecified), the TGI was above 100 µM with HOP-62 NSCLC; 71.7 µM in the assay on MDA-N; above 100 µM with TK-10 renal; 44.2 µM in the assay with COLO 205 colon; above 100 µM with NCI-H460 lung; above 100 µM in the assay with A549 NSCLC. For the same compound, the TGI is above 100 µM in the assay with OVCAR-4 ovarian; 82.5 µM with HCC-2998 colon; above 100 µM in the assay on SW-620 colon; above 100 µM in the assay on NCI-H23 lung; above 100 µM in the assay with MCF7 breast; 83.1 µM in the assay with SN12C renal. In addition, the GI50 is 21.7 µM in the assay with A549 NSCLC, 45.8 µM in the assay with SW-620 colon, 13.3 µM in the assay on NCI-H23 lung and 23.6 µM in the assay on MCF7 breast.

Take `CC1=NN(C(=O)c2ccccc2O)C(=O)/C1=C/c1ccccc1O`: the TGI in the assay with HOP-62 NSCLC was 39.4 µM; in the assay with MDA-N, above 100 µM; with TK-10 renal it was above 100 µM; with COLO 205 colon it was above 89.1 µM; in the assay on NCI-H460 lung it was above 100 µM; in the assay with A549 NSCLC, above 100 µM. Besides, the TGI in the assay on OVCAR-4 ovarian was 68.3 µM; in the assay on HCC-2998 colon it was 55.6 µM; in the assay with SW-620 colon, above 100 µM; in the assay on NCI-H23 lung, 20.9 µM; in the assay on MCF7 breast, above 64.2 µM; with SN12C renal it was 33.7 µM.

The values above are taken from PubChem BioAssay (NCI).
